This note sets out measurements from PubChem BioAssay (NCI).

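Compound exposure: 48 hours, 5 concentrations, 96-well plates. TGI is the concentration that stops growth completely.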

In general, TGI refers to the concentration at which net growth stops.

Among the test systems are CAKI-1 renal; COLO 205 colon; DLD-1 colon; HL-60(TB) leukemia; HOP-62 NSCLC; HT29 colon; K-562 leukemia; MOLT-4 leukemia; NCI-H226 lung; NCI-H522 lung; OVCAR-4 ovarian; OVCAR-5 ovarian; RXF 393 renal; SF-268 CNS; SK-MEL-5 melanoma; SNB-19 CNS; SNB-75 CNS; SW-620 colon; UACC-62 melanoma; TK-10 renal.
What all share (experiment): DTP human tumour cell line panel, 48 h

Take `COc1ccccc1Cc1nc(-c2ccccc2)nn(C2OC(COC(C)=O)C(OC(C)=O)C(OC(C)=O)C2OC(C)=O)c1=S` (centres undefined): the TGI was 32.9 µM in the assay on CAKI-1 renal; greater than 86.9 µM with COLO 205 colon; greater than 100 µM with DLD-1 colon; greater than 100 µM in the assay with HL-60(TB) leukemia; 38.3 µM in the assay on HOP-62 NSCLC; greater than 100 µM with HT29 colon. For the same compound, the TGI in the assay on K-562 leukemia was greater than 100 µM; with MOLT-4 leukemia it was greater than 100 µM; with NCI-H226 lung, greater than 95.7 µM; in the assay with NCI-H522 lung it was 36.4 µM; with OVCAR-4 ovarian it was 8.58 µM; in the assay with OVCAR-5 ovarian, greater than 100 µM. Further, the TGI was 31.9 µM in the assay on RXF 393 renal; 60.4 µM in the assay on SF-268 CNS; 26.1 µM in the assay with SK-MEL-5 melanoma; greater than 52.7 µM in the assay on SNB-19 CNS; 15.4 µM in the assay with SNB-75 CNS; greater than 100 µM in the assay on SW-620 colon. In the assay on UACC-62 melanoma, this compound yielded a TGI greater than 80.3 µM.
As for `Cc1cn(Cc2cnnn2CC2OC(n3cc(C)c(=O)[nH]c3=O)CC2O)c(=O)[nH]c1=O` (centres undefined), the TGI in the assay on CAKI-1 renal, with COLO 205 colon, in the assay with HOP-62 NSCLC, in the assay on MOLT-4 leukemia, in the assay on NCI-H226 lung and with OVCAR-4 ovarian was greater than 100 µM throughout. The TGI with OVCAR-5 ovarian, in the assay on RXF 393 renal, with SF-268 CNS, in the assay on SK-MEL-5 melanoma, with SNB-19 CNS and in the assay on SW-620 colon was greater than 100 µM each time. For the same compound, the TGI in the assay with TK-10 renal and in the assay on UACC-62 melanoma was greater than 100 µM in each case.
Take `COc1cc2cc[n+]3c(C)c4cc(OC)c(OC)cc4c([O-])c3c2cc1OC`: the TGI in the assay with CAKI-1 renal is greater than 100 µM; in the assay on COLO 205 colon, 48.3 µM; in the assay with DLD-1 colon, greater than 100 µM; with HL-60(TB) leukemia, 48.8 µM; in the assay on HOP-62 NSCLC it was greater than 100 µM; in the assay with HT29 colon, greater than 100 µM. Further, the TGI was greater than 100 µM in the assay on K-562 leukemia; greater than 100 µM in the assay with MOLT-4 leukemia; greater than 100 µM with NCI-H226 lung; 42 µM in the assay with NCI-H522 lung; greater than 100 µM in the assay with OVCAR-4 ovarian; greater than 100 µM in the assay on OVCAR-5 ovarian. Also, the concentration for total growth inhibition (TGI) in the assay with RXF 393 renal is 89.9 µM; with SF-268 CNS, greater than 100 µM; in the assay on SK-MEL-5 melanoma, greater than 100 µM; in the assay on SNB-19 CNS, greater than 100 µM; in the assay with SNB-75 CNS it was greater than 100 µM; in the assay on SW-620 colon, greater than 100 µM. Also, the TGI in the assay on TK-10 renal and in the assay with UACC-62 melanoma was greater than 100 µM in each case.
`COc1ccc(C(=O)Cc2ccc(Br)cc2)cc1OC`: the TGI in the assay on CAKI-1 renal, in the assay with DLD-1 colon, with HL-60(TB) leukemia, in the assay on HOP-62 NSCLC, in the assay with HT29 colon and in the assay with K-562 leukemia was greater than 100 µM each time. Also, the TGI in the assay with MOLT-4 leukemia, in the assay with NCI-H226 lung, with NCI-H522 lung, with OVCAR-4 ovarian, in the assay with OVCAR-5 ovarian and in the assay on RXF 393 renal was greater than 100 µM throughout. For the same compound, the TGI in the assay with SF-268 CNS is greater than 100 µM; in the assay with SK-MEL-5 melanoma it was greater than 100 µM; in the assay with SNB-19 CNS, greater than 100 µM; with SNB-75 CNS, 54.5 µM; in the assay on SW-620 colon it was greater than 100 µM; in the assay with TK-10 renal, greater than 100 µM. For the same compound, the TGI in the assay on UACC-62 melanoma was greater than 100 µM.
In the case of `CCOC(=O)Cc1cc(OC)c(OC)cc1/C(Cl)=C(\C=O)c1ccc(OC)c(OC)c1`, the TGI in the assay with CAKI-1 renal was determined as 75.5 µM; in the assay on COLO 205 colon it was 50.6 µM; in the assay on DLD-1 colon, 48.8 µM; with HL-60(TB) leukemia it was 40.9 µM; in the assay with HOP-62 NSCLC, 46.9 µM; with HT29 colon, 29.2 µM. The TGI was 56.5 µM with K-562 leukemia; 42.1 µM in the assay on MOLT-4 leukemia; 56.3 µM in the assay with OVCAR-4 ovarian; greater than 100 µM in the assay on RXF 393 renal; 35.1 µM in the assay on SK-MEL-5 melanoma; greater than 100 µM in the assay with SNB-19 CNS. In addition, the TGI in the assay on SNB-75 CNS was greater than 100 µM; in the assay on SW-620 colon, 57 µM; in the assay with TK-10 renal it was 90.8 µM; with UACC-62 melanoma, 37.9 µM.
Turning to `COc1cc(C(C)c2cc3c(cc2OCCO)OCO3)cc(OC)c1OC` (centres undefined), the TGI in the assay with CAKI-1 renal was greater than 100 µM; with COLO 205 colon, 7.47 µM; with DLD-1 colon, greater than 100 µM; in the assay with HL-60(TB) leukemia it was 2.02 µM; in the assay with HOP-62 NSCLC, greater than 100 µM; in the assay on HT29 colon, greater than 100 µM. For the same compound, the TGI in the assay on K-562 leukemia is greater than 100 µM; in the assay on MOLT-4 leukemia it was greater than 100 µM; with NCI-H226 lung, greater than 100 µM; with NCI-H522 lung, 2.93 µM; in the assay with OVCAR-4 ovarian, greater than 100 µM; in the assay on OVCAR-5 ovarian, greater than 100 µM. In addition, the TGI was 3.43 µM in the assay with RXF 393 renal; greater than 100 µM with SF-268 CNS; greater than 100 µM in the assay with SK-MEL-5 melanoma; greater than 100 µM with SNB-19 CNS; 4.34 µM in the assay with SNB-75 CNS; greater than 100 µM with SW-620 colon. Further, the TGI with TK-10 renal and in the assay with UACC-62 melanoma was greater than 100 µM throughout.
Regarding `Cc1nc2c(sc(=S)n2-c2ccccc2)c(=O)[nH]1`, the TGI in the assay on COLO 205 colon, in the assay with DLD-1 colon, with HL-60(TB) leukemia, with HOP-62 NSCLC, in the assay on HT29 colon and in the assay on K-562 leukemia was greater than 100 µM in each case. The TGI with MOLT-4 leukemia, with NCI-H226 lung, in the assay with NCI-H522 lung, in the assay with OVCAR-5 ovarian, in the assay with SF-268 CNS and in the assay with SK-MEL-5 melanoma was greater than 100 µM in each case. For the same compound, the TGI in the assay on SNB-19 CNS, in the assay with SW-620 colon, in the assay with TK-10 renal and in the assay with UACC-62 melanoma was greater than 100 µM in each case.
Regarding `NCCCN(CCCN)CCN(CCN(CCCN)CCCN)CCN(CCCN)CCCN`, the TGI in the assay on CAKI-1 renal, in the assay on COLO 205 colon, with HL-60(TB) leukemia, in the assay with HOP-62 NSCLC, in the assay with HT29 colon and with K-562 leukemia was greater than 100 µM each time. The TGI with NCI-H226 lung was greater than 100 µM; in the assay with NCI-H522 lung it was 63.3 µM; in the assay with OVCAR-4 ovarian, greater than 100 µM; in the assay with OVCAR-5 ovarian, greater than 100 µM; in the assay with SK-MEL-5 melanoma, greater than 100 µM; in the assay with SNB-19 CNS it was greater than 100 µM. Further, the TGI was 22.9 µM in the assay with SNB-75 CNS, greater than 100 µM in the assay on SW-620 colon and greater than 100 µM in the assay with TK-10 renal.
